Laboratory results taken from US9212196B2, “Hypophosphorous acid derivatives having antihyperalgic activity and biological applications thereof” (UNIVERSITE PARIS DESCARTES, priority 2011, dated 2015).
Counter-ions that a name gives are not always drawn.

Columns and labels:
Format in all cases: cell-based
mGlu7 [1] = molecular target: mGlu7 (Homo sapiens (Human), UniProt Q14831); test: Agonist activity on mGlu7 in transfected HEK293 cells, intracellular calcium release (Fluo4-AM); conditions: transfected cells, calcium release; read-out: mGlu7 EC50 μM (n)
Chain of mGlu7 (Homo sapiens (Human), UniProt Q14831) (Q14831 35-915): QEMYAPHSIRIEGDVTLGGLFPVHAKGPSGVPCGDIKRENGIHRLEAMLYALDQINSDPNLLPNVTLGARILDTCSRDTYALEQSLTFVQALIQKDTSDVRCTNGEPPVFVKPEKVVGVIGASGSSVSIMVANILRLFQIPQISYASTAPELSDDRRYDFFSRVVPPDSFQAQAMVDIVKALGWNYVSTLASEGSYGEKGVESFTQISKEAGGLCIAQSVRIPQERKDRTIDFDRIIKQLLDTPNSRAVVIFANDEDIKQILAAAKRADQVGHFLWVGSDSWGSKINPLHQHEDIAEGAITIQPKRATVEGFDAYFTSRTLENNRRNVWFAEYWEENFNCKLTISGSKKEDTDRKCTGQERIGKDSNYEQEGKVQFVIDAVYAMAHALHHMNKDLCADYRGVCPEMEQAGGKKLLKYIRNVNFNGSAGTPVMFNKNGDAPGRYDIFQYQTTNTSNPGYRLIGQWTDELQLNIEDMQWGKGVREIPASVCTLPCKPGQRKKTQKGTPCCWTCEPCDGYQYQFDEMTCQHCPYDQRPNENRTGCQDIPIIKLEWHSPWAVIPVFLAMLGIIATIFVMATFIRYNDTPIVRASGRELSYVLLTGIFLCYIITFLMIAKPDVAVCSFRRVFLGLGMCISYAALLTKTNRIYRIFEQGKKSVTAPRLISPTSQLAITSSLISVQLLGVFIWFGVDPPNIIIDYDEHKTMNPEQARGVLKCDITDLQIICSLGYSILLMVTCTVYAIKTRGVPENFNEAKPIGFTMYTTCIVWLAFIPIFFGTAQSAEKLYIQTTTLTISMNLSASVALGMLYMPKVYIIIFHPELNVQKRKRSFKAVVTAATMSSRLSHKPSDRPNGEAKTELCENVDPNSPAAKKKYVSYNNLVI
From the text: (§1) The EC50's are compared to those of L-AP4 (L-2-amino-4-phosphonobutyric acid) used as a reference.
(§2) Metabotropic glutamate receptors were transiently transfected in HEK293 cells by electroporation as described elsewhere (Brabet I. et al., 1998) and plated in 96-well microplates. The high affinity glutamate transporter EAAC1 was co-transfected with the receptor in order to avoid any influence of glutamate released by the cells in the assay medium. In the experiments carried out by the inventors, Group-III mGluRs were co-transfected with a chimeric G-protein which couples the activation of the receptor to the phospholipase-C (PLC) pathway. Thus receptor activation induces production of inositol phosphate (IP) which in turn induces intracellular Ca^2+ release. Receptor activity was then determined by measurement of the IP production or Ca release as already described (Goudet C. et al., PNAS 2004). For intracellular calcium measurements, cells expressing mGluRs were loaded with Ca2+-sensitive fluorescent dye Fluo-4 AM (Invitrogen, Cergy-Pontoise, France) dissolved in Hanks' balanced salt solution (HBSS, Invitrogen, Cergy-Pontoise, France) containing 2.5 mM Probenicid (Sigma-Aldrich Chemie, Saint-Quentin Fallavier, France) for 1 h at 37° C., then washed and incubated with HBSS containing probenecid. A drug plate was prepared with the various concentrations of agonist to be tested and drug solution was added in each well after 20 s of recording. Fluorescence signals (excitation 485 nm, emission 525 nm) were measured by using the fluorescence microplate reader Flexstation III (Molecular Devices, Saint-Grégoire, France) at sampling intervals of 1.5 s for 60 s. All points are realized in triplicate.
(§3) The dose-response curves were fitted using the GraphPad Prism program and the following equation: y=[(ymax−ymin)/(1+(x/EC50)n)]+ymin where EC50 is the concentration of the compound necessary to obtain the half maximal effect and n is the Hill coefficient.

mGlu7 [2] = test: as above; conditions: ratio of mGlu7 EC50 to mGlu4 EC50
From the text: as §1, §2, §3

mGlu8 = mGlu8 (Homo sapiens (Human), UniProt O00222); test: Agonist activity on mGlu8 in transfected HEK293 cells, intracellular calcium release (Fluo4-AM); conditions: for mGlu8/4 EC50 ratio: ratio of mGlu8 EC50 to mGlu4 EC50; for EC50: transfected cells, calcium release, read-out: mGlu8 EC50 μM (n)
Chain of mGlu8 (O00222 34-908): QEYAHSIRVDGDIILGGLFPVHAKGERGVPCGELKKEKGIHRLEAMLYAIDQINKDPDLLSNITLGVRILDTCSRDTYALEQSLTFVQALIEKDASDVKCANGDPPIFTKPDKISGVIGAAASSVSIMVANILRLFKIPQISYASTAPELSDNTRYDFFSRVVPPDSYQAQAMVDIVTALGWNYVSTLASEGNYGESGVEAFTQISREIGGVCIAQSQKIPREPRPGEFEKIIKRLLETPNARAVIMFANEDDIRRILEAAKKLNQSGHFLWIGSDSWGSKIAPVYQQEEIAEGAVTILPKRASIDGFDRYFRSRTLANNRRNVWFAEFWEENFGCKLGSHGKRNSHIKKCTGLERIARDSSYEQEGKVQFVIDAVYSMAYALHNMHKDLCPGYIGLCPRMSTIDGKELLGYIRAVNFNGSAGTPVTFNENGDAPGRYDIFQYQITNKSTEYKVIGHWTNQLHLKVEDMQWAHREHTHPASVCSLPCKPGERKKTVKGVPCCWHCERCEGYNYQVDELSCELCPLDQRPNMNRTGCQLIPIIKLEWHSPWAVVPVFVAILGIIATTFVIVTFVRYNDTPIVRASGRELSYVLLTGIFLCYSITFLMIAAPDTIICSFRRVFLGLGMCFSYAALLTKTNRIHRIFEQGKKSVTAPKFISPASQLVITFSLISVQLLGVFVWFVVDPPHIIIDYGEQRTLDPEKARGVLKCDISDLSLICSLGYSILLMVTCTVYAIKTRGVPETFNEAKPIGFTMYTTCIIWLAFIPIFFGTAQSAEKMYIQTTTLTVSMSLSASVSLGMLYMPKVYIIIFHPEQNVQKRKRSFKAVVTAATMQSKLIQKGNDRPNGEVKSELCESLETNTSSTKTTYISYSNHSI
From the text: as §1, §2, §3

mGlu4 = mGlu4 (Homo sapiens (Human), UniProt Q14833); test: Agonist activity on mGlu4 in transfected HEK293 cells, intracellular calcium release (Fluo4-AM); conditions: transfected cells, calcium release; read-out: mGlu4 EC50 μM (n)
Chain of mGlu4 (Q14833 33-912): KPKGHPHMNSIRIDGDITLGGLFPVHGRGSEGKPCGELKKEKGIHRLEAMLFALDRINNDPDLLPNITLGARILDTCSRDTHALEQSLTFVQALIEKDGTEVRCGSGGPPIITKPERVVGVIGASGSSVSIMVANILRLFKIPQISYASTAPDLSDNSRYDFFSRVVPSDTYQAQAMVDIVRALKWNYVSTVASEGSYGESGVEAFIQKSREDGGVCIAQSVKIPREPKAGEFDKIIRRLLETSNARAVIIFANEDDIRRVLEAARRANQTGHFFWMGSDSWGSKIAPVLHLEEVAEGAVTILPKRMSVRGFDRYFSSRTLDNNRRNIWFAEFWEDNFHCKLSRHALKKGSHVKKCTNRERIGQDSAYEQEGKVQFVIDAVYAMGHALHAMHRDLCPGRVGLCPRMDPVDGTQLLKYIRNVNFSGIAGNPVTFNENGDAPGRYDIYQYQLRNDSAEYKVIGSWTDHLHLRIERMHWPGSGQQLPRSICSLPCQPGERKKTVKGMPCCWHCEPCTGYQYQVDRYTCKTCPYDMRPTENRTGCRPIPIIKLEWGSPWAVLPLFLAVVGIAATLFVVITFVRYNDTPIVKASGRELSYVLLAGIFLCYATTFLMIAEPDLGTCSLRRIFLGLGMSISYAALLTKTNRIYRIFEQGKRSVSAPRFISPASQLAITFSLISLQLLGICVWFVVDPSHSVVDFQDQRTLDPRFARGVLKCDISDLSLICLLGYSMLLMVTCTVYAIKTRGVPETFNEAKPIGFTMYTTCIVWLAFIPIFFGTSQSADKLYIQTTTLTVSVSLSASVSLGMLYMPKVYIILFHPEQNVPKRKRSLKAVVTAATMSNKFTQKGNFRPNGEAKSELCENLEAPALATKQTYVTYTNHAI
From the text: as §1, §2, §3

| Structure (SMILES) | EC50 (mGlu7 [1]) [µM] | mGlu7/4 EC50 ratio (mGlu7 [2]) | mGlu8/4 EC50 ratio (mGlu8) | EC50 (mGlu8) [µM] | EC50 (mGlu4) [µM] | mGlu8/4 EC50 ratio (mGlu8; Hydrochloride) |
| --- | --- | --- | --- | --- | --- | --- |
| CCOc1cc(C(O)P(=O)(O)CC[C@H](N)C(=O)O)ccc1OCC(=O)O (stereo in doubt) [Derivative 19, 2-amino-4-(((4-(carboxymethoxy)-3-ethoxyphenyl)(hydroxy)methyl)(hydroxy)phosphoryl)butanoic acid] | 60.2 ± 10.6 | 36 | 15 | 25 ± 6 | 1.67 ± 0.33 |  |
| COc1cc(C(O)P(=O)(O)CC[C@H](N)C(=O)O)cc(Cl)c1OCC(=O)O (stereo partly shown) [Derivative 7] | 11.4 ± 0.1 | 88 | 341 | 44 ± 7 | 0.13 ± 0.02 |  |
| COc1cc(CP(=O)(O)CC[C@H](N)C(=O)O)cc(Cl)c1OCC(=O)O (stereo in doubt) [Derivative 35, 2-amino-4-((4-(carboxymethoxy)-3-chloro-5-methoxybenzyl)(hydroxy)phosphoryl)butanoic acid] | > 300 | >48 | 6 | 38.2 ± 7.1 | 6.2 ± 0.58 |  |
| N[C@@H](CCP(=O)(O)C(O)c1ccc(SCC(=O)O)cc1)C(=O)O (stereo in doubt) [Derivative 26, 2-amino-4-(((4-(carboxymethylthio)phenyl)(hydroxy)methyl)(hydroxy)phosphoryl)butanoic acid] | 13 ± 1.1 | 62 | 5.9 | 1.23 ± 0.48 | 0.21 ± 0.04 |  |
| COc1cc(CP(=O)(O)CC[C@H](N)C(=O)O)cc(F)c1OCC(=O)O (stereo in doubt) [Derivative 34, 2-amino-4-((4-(carboxymethoxy)-3-fluoro-5-methoxybenzyl)(hydroxy)phosphoryl)butanoic acid] | 232 ± 85 | 75 | 3 | 9.17 ± 2.37 | 3.09 ± 0.62 |  |
| COc1cc(CP(=O)(O)CC[C@H](N)C(=O)O)ccc1OCC(=O)O (stereo in doubt) [Derivative 31, 2-amino-4-((4-(carboxymethoxy)-3-methoxybenzyl)(hydroxy)phosphoryl)butanoic acid] |  |  | >40 | > 300 | 7.41 ± 1.55 |  |
| N[C@@H](CCP(=O)(O)C(O)c1cccc(OCC(=O)O)c1)C(=O)O (stereo partly drawn) [Derivative 17, [((3S)-3-Ammonium-3-carboxy)propyl][(3-(carboxymethoxy)phenyl)hydroxymethyl]phosphinic Acid Hydrochloride] |  |  |  |  |  | 2.3 |
| N[C@@H](CCP(=O)(O)C(O)c1ccc(OCC(=O)O)c([N+](=O)[O-])c1)C(=O)O (stereo in doubt) [Derivative 24, 2-amino-4-(((4-(carboxymethoxy)-3-nitrophenyl)(hydroxy)methyl)(hydroxy)phosphoryl)butanoic acid] | 11.2 ± 3.9 | 43 | 6.1 | 1.59 ± 0.82 | 0.26 ± 0.07 |  |
| N[C@@H](CCP(=O)(O)C(O)c1ccc(OCP(=O)(O)O)cc1)C(=O)O (stereo partly drawn) [Derivative 14, [((3S)-3-Amino-3-carboxy)propyl][(4-phosphonomethoxyphenyl)hydroxymethyl]phosphinic Acid] | 34 ± 10 | 92 | 303 | 112 ± 46 | 0.37 ± 0.12 |  |
| N[C@@H](CCP(=O)(O)C(O)c1cccc(OCC(=O)O)c1)C(=O)O (stereo partly drawn) [Derivative 15, [((3S)-3-Amino-3-carboxy)propyl][(3-(carboxymethoxy)phenyl)hydroxymethyl]phosphinic Acid] |  |  | 9.4 |  |  |  |
| N[C@@H](CCP(=O)(O)C(O)c1ccc(OCC(=O)O)c(C(=O)O)c1)C(=O)O (stereo in doubt) [Derivative 23, 5-(((3-amino-3-carboxypropyl)(hydroxy)phosphoryl)(hydroxy)methyl)-2-(carboxymethoxy)benzoic acid] | 65 ± 13 | 16 | 1.9 | 7.4 ± 1.2 | 4 ± 0.6 |  |

The next lines start with the values.

| EC50 (mGlu7 [1]) [µM] | mGlu7/4 EC50 ratio (mGlu7 [2]) | mGlu8/4 EC50 ratio (mGlu8) | EC50 (mGlu8) [µM] | EC50 (mGlu4) [µM] | mGlu8/4 EC50 ratio (mGlu8; Hydrochloride) | Structure (SMILES) |
| --- | --- | --- | --- | --- | --- | --- |
|  |  |  | 29.3 ± 7.2 | 13 ± 2.9 |  | N[C@@H](CCP(=O)(O)C(O)c1cccc(OCC(=O)O)c1)C(=O)O (single isomer, unassigned) [Derivative 17, Hydrochloride] |
| 22.9 ± 7.8 | 60 | 484 | 109 ± 15 | 0.38 ± 0.09 |  | N[C@@H](CCP(=O)(O)C(O)c1cc(Cl)c(OCC(=O)O)c(Cl)c1)C(=O)O (stereo partly shown) [Derivative 9] |
| 35.5 ± 4 | 39 | 8 | 6.86 ± 1.83 | 0.9 ± 0.06 |  | N[C@@H](CCP(=O)(O)C(O)c1ccc(OCC(=O)O)c(C(F)(F)F)c1)C(=O)O (stereo in doubt) [Derivative 21, 2-amino-4-(((4-(carboxymethoxy)-3-(trifluoromethyl)phenyl)(hydroxy)methyl)(hydroxy)phosphoryl)butanoic acid] |
|  |  |  | 36 ± 18 | 4.9 ± 1 |  | N[C@@H](CCP(=O)(O)C(O)c1cccc(OCC(=O)O)c1)C(=O)O (single isomer, unassigned) [Derivative 16, Hydrochloride] |
| 6.6 ± 1.5 | 44 | 193 | 28 ± 4 | 0.15 ± 0.03 |  | COc1cc(C(O)P(=O)(O)CC[C@H](N)C(=O)O)cc(I)c1OCC(=O)O (stereo partly shown) [Derivative 8] |
| 301 ± 73 | 5 | 1.6 | > 100 | 62.5 ± 20.5 |  | N[C@@H](CCP(=O)(O)Cc1ccc(OCC(=O)O)c(C(F)(F)F)c1)C(=O)O (stereo in doubt) [Derivative 33, 2-amino-4-((4-(carboxymethoxy)-3-(trifluoromethyl)benzyl)(hydroxy)phosphoryl)butanoic acid] |
|  |  | 6 | 14.1 ± 7.3 | 2.5 ± 1.1 |  | N[C@@H](CCP(=O)(O)C(O)c1ccc(OCC(=O)O)c(OCC(=O)O)c1)C(=O)O (stereo partly drawn) [Derivative 18, [((3S)-3-Amino-3-carboxy)propyl][(3,4-di(carboxymethoxy)phenyl)hydroxymethyl]phosphinic Acid] |
|  |  |  |  |  | 7.4 | N[C@@H](CCP(=O)(O)C(O)c1cccc(OCC(=O)O)c1)C(=O)O (stereo partly drawn) [Derivative 16, [((3S)-3-Ammonium-3-carboxy)propyl][(3-(carboxymethoxy)phenyl)hydroxymethyl]phosphinic Acid Hydrochloride] |
| 16.2 ± 3.5 | 13 | >82 | > 100 | 1.22 ± 0.15 |  | N[C@@H](CCP(=O)(O)Cc1ccc(OCC(=O)O)c(OC(F)(F)F)c1)C(=O)O (stereo in doubt) [Derivative 32, 2-amino-4-((4-(carboxymethoxy)-3-(trifluoromethoxy)benzyl)(hydroxy)phosphoryl)butanoic acid] |
|  |  |  | 71 ± 25 | 7.6 ± 2 |  | N[C@@H](CCP(=O)(O)C(O)c1cccc(OCC(=O)O)c1)C(=O)O (mixture of isomers) [Derivative 15, [((3S)-3-Amino-3-carboxy)propyl][(3-(carboxymethoxy)phenyl)hydroxymethyl]phosphinic Acid] |
| 3.5 ± 1.3 | 44 | 129 | 10.3 ± 1.3 | 0.08 ± 0.02 |  | COc1cc(C(O)P(=O)(O)CC[C@H](N)C(=O)O)cc(F)c1OCC(=O)O (stereo partly shown) [Derivative 6] |
| 15 ± 3.6 | 14 | 31 | 34 ± 19 | 1.1 ± 0.4 |  | N[C@@H](CCP(=O)(O)C(O)c1ccc(OCC(=O)O)c(O)c1)C(=O)O (stereo in doubt) [Derivative 22, 2-amino-4-(((4-(carboxymethoxy)-3-hydroxyphenyl)(hydroxy)methyl)(hydroxy)phosphoryl)butanoic acid] |
| 37 ± 5 | 38 | 50 | 48.7 ± 9.6 | 0.98 ± 0.18 |  | N[C@@H](CCP(=O)(O)C(O)c1ccc(CCC(=O)O)cc1)C(=O)O (stereo partly drawn) [Derivative 12, [((3S)-3-Amino-3-carboxy)propyl][(4-(carboxyethyl)phenyl)hydroxymethyl]phosphinic Acid] |
| 1.97 ± 0.34 | 33 | 927 | 55.6 ± 12 | 0.06 ± 0.02 |  | N[C@@H](CCP(=O)(O)C(O)c1ccc(OCC(=O)O)c(OC(F)(F)F)c1)C(=O)O (stereo in doubt) [Derivative 20, 2-amino-4-(((4-(carboxymethoxy)-3-(trifluoromethoxy)phenyl)(hydroxy)methyl)(hydroxy)phosphoryl)butanoic acid] |
